Measured values as given in paper PMC6624652, “Compound Discovery and Structure-Activity Relationship Study of Neoantimycins Against Drug-Resistant Cancer Cells” (Frontiers in Chemistry, 2019).
Where two headings read alike, the source gives them in different places.

Assays:
[1] = tested on: cisplatin-resistant human gastric cancer cell line SGC7901/DDP; assay: WST-8 (CCK-8) in vitro cytotoxicity test, SGC7901/DDP; type: cell-based; conditions: read-out: IC50, SGC7901/DDP
Protocol: (§1) A WST-8 colorimetric assay (Cell Counting Kit-8, Dojindo) was used to determine the cytotoxicity of the obtained compounds against four human cancer cell lines (human gastric cancer cell line SGC7901, cisplatin-resistant human gastric cancer cell line SGC7901/DDP, human colon cancer cell line HCT-8, and taxol-resistant human colon cancer cell line HCT-8/T) and noncancerous NCM460 colon cell line. Each cell line (100 μL, 5 × 10^4 cells/mL) was inoculated into standard 96-well, flat-bottom microplates, and incubated with DMEM (for HCT-8 and NCM460) or RPMI-1640 (for HCT-8/T, SGC7901, and SGC7901/DDP) medium for 24 h at 37°C in a humidified atmosphere containing 5% CO2. The attached cells were then incubated with serially diluted NATs (1-8). After continuous exposure to the compounds for 72 h, 10 μL CCK-8 solution was added. After 3 h of incubation at 37°C (5% CO2), the absorbance was measured at 450 nm using a microtiter plate reader (SpectraMax 190, Molecular Devices). Cisplatin and taxol (purity ≥ 98% Sigma, USA) were used as positive controls. All studies were performed in triplicate and the IC50 values were calculated using Prism software.

[2] = tested on: taxol-resistant human colon cancer cell line HCT-8/T; assay: WST-8 (CCK-8) in vitro cytotoxicity test, HCT-8/T; type: cell-based; conditions: read-out: IC50, HCT-8/T
Protocol: as §1

[3] = tested on: HT-29 cell line; design: method as in Li et al., 2013; conditions: ref Li et al., 2013; cited from earlier work
[4] = tested on: SGC7901, SGC7901/DDP, HCT-8 and HCT-8/T cell lines; assay: Cytotoxicity summarised over all four cancer cell lines; type: cell-based, human; conditions: for IC50: Homo sapiens, read-out: anti-proliferative activity (IC50 span) against all four cell lines; for fold higher activity than corresponding oxidized forms (3 and 4): in vitro, span over four cell lines; for fold better anti-proliferative activity in drug-resistant cell lines than in sensitive ones: span over compounds 3, 4, 7, 8
Protocol: as §1

[5] = tested on: human colon cancer cell line HCT-8; assay: WST-8 (CCK-8) in vitro cytotoxicity test, HCT-8; type: cell-based; conditions: read-out: IC50, HCT-8
Protocol: as §1

[6] = tested on: noncancerous NCM460 colon cell line; assay: WST-8 (CCK-8) in vitro cytotoxicity test, NCM460; type: cell-based; conditions: Homo sapiens, read-out: IC50, NCM460
Protocol: as §1

[7] = tested on: human gastric cancer cell line SGC7901; assay: WST-8 (CCK-8) in vitro cytotoxicity test, SGC7901; type: cell-based; conditions: read-out: IC50, SGC7901
Protocol: as §1

[8] = tested on: K562 cells; design: method as in Takahashi et al., 2001; conditions: ref Takahashi et al., 2001; cited from earlier work
[9] = tested on: KB cells; design: method as in Takahashi et al., 2001; conditions: ref Takahashi et al., 2001; cited from earlier work
[10] = tested on: GRP78; design: method as in Izumikawa et al., 2007; conditions: ref Izumikawa et al., 2007; cited from earlier work
[11] = tested on: HCT-8 cells; assay: Cell morphology, DAPI staining; type: cell-based, human; conditions: 72 h
Protocol: HCT-8 cells were seeded in 12-well plates at a density of 1 × 10^5 cells per well. After overnight adherence, they were exposed to the indicated concentration of NAT-A for 72 h. After that, the cells were washed with PBS and fixed 4% paraformaldehyde for 30 min at room temperature. After washing with PBS, the cells were stained with DAPI (100 ng/mL) for 15 min in the dark and photographed using a fluorescence microscope (Nikon, Japan).

[12] = tested on: HCT-8 cells; assay: Apoptosis analysis by flow cytometry (Annexin V-FITC/PI); type: cell-based, human; conditions: NAT-A 0.5 μM, 72 h, untreated 7.2 ± 1.1%
Protocol: An Annexin V-FITC/PI Apoptosis Detection kit I (BD Pharmingen, San Diego, CA, USA) was adopted to examine the cell apoptosis according to the manufacturer's instructions. HCT-8 cells were cultured on a six-well plate (3 × 10^5 cells/well) and allowed to attach for 24 h before treated with NAT-A (0 and 0.5 μM) for 72 h. Then cells were harvested, washed with PBS and resuspended in 1 × binding buffer. Cell suspension (100 μL) was incubated with 5 μL FITC Annexin-V and 5 μL propidium iodide (PI) for 15 min in the dark. Following the incubation, 400 μL 1 × binding buffer was added into each sample before analysis using flow cytometry (Thermo Fisher Scientific, Eugene, Oregon, USA). The lower left section of fluorocytogram (Annexin V-, PI-) represents the normal cells, lower right section of fluorocytogram (Annexin V+, PI-) represents early apoptosis cells, and upper right section of fluorocytogram (Annexin V+, PI+) represents late apoptosis cells.

[13] = 72 h exposure, CCK-8, mean ± SD, n = 3
[14] = Homo sapiens, HCT-8, taxol-resistant, 72 h exposure, CCK-8, mean ± SD, n = 3
[15] = Homo sapiens, HCT-8, 72 h exposure, CCK-8, mean ± SD, n = 3

SMILES: CC(C)[C@@H]1OC(=O)[C@@H](NC(=O)c2cccc(NC=O)c2O)[C@@H](C)OC(=O)[C@H](C(C)C)OC(=O)C(C)(C)[C@@H](O)[C@@H](Cc2ccccc2)OC1=O [Compound 8, Neoantimycin F]
- IC50 ([1]; Homo sapiens, SGC-7901, 72 h): 6.4 ± 0.5 nM
- IC50 ([2]; Homo sapiens, HCT-8, 72 h): 26.1 ± 0.1 nM
- antiproliferative activity against HT-29 cell line [3]: hardly had any significant antiproliferative activity
- IC50 [4]: 1.5 to 523 nM
- fold higher activity than corresponding oxidized forms (3 and 4) [4]: 1.2~13 fold
- fold better anti-proliferative activity in drug-resistant cell lines than in sensitive ones [4]: 5.2~33.5 fold
- IC50 ([5]; Homo sapiens, HCT-8, 72 h): 136 ± 18.2 nM
- IC50 ([6]; NCM460, 72 h): > 50000 nM
- IC50 ([7]; Homo sapiens, SGC-7901, 72 h): 98.5 ± 32.6 nM

SMILES: CCC(C)C1OC(=O)C(C)(C)C(O)C(Cc2ccccc2)OC(=O)C(C)OC(=O)C(NC(=O)c2cccc(NC=O)c2O)C(C)OC1=O (stereo not shown) [SW-163 A]
- cytotoxicity against K562 cells [8]: no cytotoxicity
- cytotoxicity against KB cells [9]: no cytotoxicity

SMILES: CC[C@H](C)[C@@H]1OC(=O)C(C)(C)[C@@H](O)[C@@H](Cc2ccccc2)OC(=O)[C@H](C)OC(=O)[C@@H](NC(=O)c2cccc(N)c2O)[C@H](C)OC1=O [JBIR-05]
- expression of GRP78 [10]: inhibited the expression of GRP78

SMILES: CC[C@H](C)[C@@H]1OC(=O)C(C)(C)C(=O)[C@@H](Cc2ccccc2)OC(=O)[C@H](C(C)C)OC(=O)[C@@H](NC(=O)c2cccc(NC=O)c2O)[C@@H](C)OC1=O [Compound 3, Neoantimycin H]
- IC50 ([1]; Homo sapiens, SGC-7901, 72 h): 12.2 ± 4.6 nM
- IC50 ([2]; Homo sapiens, HCT-8, 72 h): 26.6 ± 1.5 nM
- IC50 [4]: 1.5 to 523 nM
- fold better anti-proliferative activity in drug-resistant cell lines than in sensitive ones [4]: 5.2~33.5 fold
- IC50 ([5]; Homo sapiens, HCT-8, 72 h): 523 ± 104 nM
- IC50 ([6]; NCM460, 72 h): 115 ± 18.7 nM
- IC50 ([7]; Homo sapiens, SGC-7901, 72 h): 104 ± 22.7 nM

SMILES: N.N.[Cl][Pt][Cl] [cisplatin, reference compound]
- IC50 ([1]; cisplatin-resistant, 72 h exposure, CCK-8, mean ± SD, n = 3): 5670 nM
- IC50 ([2]; taxol-resistant, 72 h exposure, CCK-8, mean ± SD, n = 3): > 20000 nM
- IC50 [5, 13]: 9490 nM
- IC50 [7, 13]: 2560 nM

SMILES: CC(=O)O[C@H]1C(=O)[C@@]2(C)[C@H]([C@H](OC(=O)c3ccccc3)[C@]3(O)C[C@H](OC(=O)[C@H](O)[C@@H](NC(=O)c4ccccc4)c4ccccc4)C(C)=C1C3(C)C)[C@]1(OC(C)=O)CO[C@@H]1C[C@@H]2O [taxol, reference compound]
- IC50 [2, 14]: > 20000 nM
- IC50 [5, 15]: 2520 nM

SMILES: CC[C@H](C)[C@@H]1OC(=O)C(C)(C)[C@@H](O)[C@@H](Cc2ccccc2)OC(=O)[C@H](C(C)C)OC(=O)[C@@H](NC(=O)c2cccc(N)c2O)[C@@H](C)OC1=O [Compound 5, Neoantimycin D]
- IC50 ([1]; Homo sapiens, SGC-7901, 72 h): > 20000 nM
- IC50 ([2]; Homo sapiens, HCT-8, 72 h): > 20000 nM
- antiproliferative activity against HT-29 cell line [3]: hardly had any significant antiproliferative activity
- cytotoxic activity (cell line not named at b4) [3]: did not show any cytotoxic activity
- IC50 ([5]; Homo sapiens, HCT-8, 72 h): > 20000 nM
- IC50 ([7]; Homo sapiens, SGC-7901, 72 h): 10200 nM

SMILES: CC(C)[C@@H]1OC(=O)[C@@H](NC(=O)c2cccc(N)c2O)[C@@H](C)OC(=O)[C@H](C(C)C)OC(=O)C(C)(C)[C@@H](O)[C@@H](Cc2ccccc2)OC1=O [Compound 6, Neoantimycin E]
- IC50 ([1]; Homo sapiens, SGC-7901, 72 h): > 20000 nM
- IC50 ([2]; Homo sapiens, HCT-8, 72 h): > 20000 nM
- antiproliferative activity against HT-29 cell line [3]: hardly had any significant antiproliferative activity
- IC50 ([5]; Homo sapiens, HCT-8, 72 h): 13100 nM
- IC50 ([7]; Homo sapiens, SGC-7901, 72 h): 1770 nM

SMILES: CC[C@H](C)[C@@H]1OC(=O)C(C)(C)C(=O)[C@@H](Cc2ccccc2)OC(=O)[C@H](C(C)C)OC(=O)[C@@H](NC(=O)c2cccc(N)c2O)[C@@H](C)OC1=O [Compound 1, Neoantimycin J]
- IC50 ([1]; Homo sapiens, SGC-7901, 72 h): > 20000 nM
- IC50 ([2]; Homo sapiens, HCT-8, 72 h): > 20000 nM
- IC50 ([5]; Homo sapiens, HCT-8, 72 h): > 20000 nM
- IC50 ([7]; Homo sapiens, SGC-7901, 72 h): > 20000 nM

SMILES: CC[C@H](C)[C@@H]1OC(=O)C(C)(C)[C@@H](O)[C@@H](Cc2ccccc2)OC(=O)[C@H](C(C)C)OC(=O)[C@@H](NC(=O)c2cccc(NC=O)c2O)[C@@H](C)OC1=O [Compound 7, Neoantimycin A]
- IC50 ([1]; Homo sapiens, SGC-7901, cisplatin-resistant, 72 h exposure, CCK-8, mean ± SD, n = 3): 1.5 ± 0.1 nM
- IC50 [2, 14]: 2 ± 0.1 nM
- IC50 ([4]; span over compounds 3, 4, 7, 8 and four cell lines): 1.5 to 523 nM
- fold higher activity than corresponding oxidized forms (3 and 4) [4]: 1.2~13 fold
- fold better anti-proliferative activity in drug-resistant cell lines than in sensitive ones [4]: 5.2~33.5 fold
- IC50 [5, 15]: 66.9 ± 5.7 nM
- IC50 ([6]; NCM460, noncancerous colon cell, 72 h exposure, CCK-8, mean ± SD, n = 3): > 50000 nM
- IC50 ([7]; Homo sapiens, SGC-7901, 72 h exposure, CCK-8, mean ± SD, n = 3): 24.5 ± 3.3 nM
- nuclear morphology after DAPI staining [11]: nuclear shrinkage, DNA fragments as well as chromatin condensation
- percentage of apoptotic cells (Annexin V/PI) [12]: 25.9 ± 0.7%

SMILES: CC(C)[C@@H]1OC(=O)[C@@H](NC(=O)c2cccc(N)c2O)[C@@H](C)OC(=O)[C@H](C(C)C)OC(=O)C(C)(C)C(=O)[C@@H](Cc2ccccc2)OC1=O [Compound 2, Neoantimycin K]
- IC50 ([1]; Homo sapiens, SGC-7901, 72 h): > 20000 nM
- IC50 ([2]; Homo sapiens, HCT-8, 72 h): > 20000 nM
- IC50 ([5]; Homo sapiens, HCT-8, 72 h): > 20000 nM
- IC50 ([7]; Homo sapiens, SGC-7901, 72 h): > 20000 nM

SMILES: CC(C)[C@@H]1OC(=O)[C@@H](NC(=O)c2cccc(NC=O)c2O)[C@@H](C)OC(=O)[C@H](C(C)C)OC(=O)C(C)(C)C(=O)[C@@H](Cc2ccccc2)OC1=O [Compound 4, Neoantimycin I]
- IC50 ([1]; Homo sapiens, SGC-7901, 72 h): 15.7 ± 1.6 nM
- IC50 ([2]; Homo sapiens, HCT-8, 72 h): 32.6 ± 4.2 nM
- IC50 [4]: 1.5 to 523 nM
- fold better anti-proliferative activity in drug-resistant cell lines than in sensitive ones [4]: 5.2~33.5 fold
- IC50 ([5]; Homo sapiens, HCT-8, 72 h): 233 ± 20.1 nM
- IC50 ([6]; NCM460, 72 h): > 50000 nM
- IC50 ([7]; Homo sapiens, SGC-7901, 72 h): 179 ± 18.3 nM
